Laboratory results published in patent publication US20240285623A1, “TRPA1 CHANNEL ANTAGONIST COMPOUND FOR USE IN DEGENERATIVE RETINAL DISEASES” (FLONEXT S.R.L., priority 2021, published 2024).

Experiments:
[1] = tested on: RPE layer (retinal pigmented epithelium); experiment: Immunofluorescence (RPE65) for assessing damage of the retinal pigment epithelium in the NalO3-induced mouse model of macular degeneration; type: in vivo, C57BL/6J male mice; conditions: for protection of the retina from NalO3-induced damage of the cells of the RPE layer (in words): NalO3 mouse model, eye drops; for reduction of the NalO3-induced damage on the RPE layer compared to V2 (RPE65 staining intensity): eye drops 5 μl of 10 mM solution, 60 min before NalO3 (20 mg/kg, retro-orbital vein) then 3 times a day, retina collected day 4, mean±SEM, P<0.01 vs. V2/NalO3
Description: (§1) To create a valid model of macular degeneration, the systemic administration (via the retro-orbital vein) of NalO3 was carried out in C57BL/6J male mice aged 5-8 weeks and weighing 22-25 g supplied by the Charles River company (Milan, Italy). In order to carry out the experiments described below, a total of 36 mice were used. The animals were kept in a temperature and humidity-controlled environment (12-hour dark/light cycle, free access to food and water). The experiments were performed in a temperature-controlled room (20 to 22° C.) between 8:00 and 20:00. At the end of the experiment, the animals were euthanized by inhalation of a mixture of 50% O2/50% CO2 for 1 minute. The NalO3, DMSO, Tween 80 and NaCl 0.9% reagents used in the study were purchased from Merck Life Science SRL (Milan, Italy).
(§2) The mice were administered locally, through eye drops, the compounds indicated above or their vehicle consisting of 4% DMSO, 4% Tween 80 in 0.9% NaCl.
(§3) In particular, a group of 6 mice (used as a control) was administered by instillation, 60 minutes before the injection into the retro-orbital vein (1 ml/kg) of the vehicle (V1) (NaCl, 0.9%) of NalO3 and subsequently 3 times a day, eye drops (5 μl) containing the vehicle (V2) (4% DMSO, 4% Tween 80 in NaCl 0.9%) of the drugs.
(§4) Another 30 mice received, in groups of 6 mice each, 60 minutes before the injection into the retro-orbital vein (1 ml/kg) of NalO3 (1%, 20 mg/kg) and subsequently 3 times a day, eye drops (5 μl) of a 10 mM solution of the above-mentioned compounds FN-005, FN-006, FN-007, FN-008 or their vehicle (V2) (4% DMSO, 4% Tween 80 in 0.9% NaCl) by instillation.
(§5) For each group of mice, the first administration (day 1) of the compound of formula (IV), of the compound of formula (I), of the compound of formula (II) and of the compound of formula (III) or of the vehicle (V2) was performed 60 minutes before the injection of NalO3 or its vehicle (V1) and the second and third administration were performed 6 and 12 hours after the injection of vehicle (V1) or NalO3, respectively. On the two days (day 2 and day 3) following the injection of vehicle (V1) or NalO3, the compounds of formula (IV), (I), (II), and (III) or vehicle (V2) were administered to the various groups of mice at 8:00, 14:00 and 20:00.
(§6) At 09:00 on day 4 after the treatment with vehicle (V1) or NalO3 the mice given the compounds indicated above as FN-005, FN-006, FN-007, FN-008 or their vehicle (V2) were sacrificed (as previously reported) and the eyeballs were enucleated and processed for subsequent analysis of the damage.
Direct immunofluorescence was used to assess damage to the RPE (retinal pigmented epithelium), which corresponds to the layer of pigmented cells immediately adjacent to the neurosensory retina which nourishes the visual cells of the retina, and is firmly attached to the underlying choroid and the overlying visual retinal cells.
The staining intensity of the RPE layer was quantified using a primary antibody (RPE65, #ab13826, mouse monoclonal, 1:100, Abcam, Cambridge, UK) to which a second fluorophore-labelled antibody (Alexa Fluor 488, #A28175, Thermo Fisher Scientific) binds in the 6 groups of mice treated with V2/V1, V2/NalO3, with the compound of formula (IV) and NalO3 (FN-005/NalO3), with the compound of formula (I) of polycyclic heteroaromatic derivatives and NalO3 (FN-006/NalO3), with the compound of formula (II) and NalO3 (FN-007/NalO3) and with the compound of formula (III) and NalO3 (FN-008/NalO3). Cell nuclei were visualized using the DAPI organic dye (#ab228549, Abcam, Cambridge, UK).
The data relating to the fluorescence intensity value are presented for each treatment as mean±SEM. *p<0.05 vs V1/V2; § p<0.05 vs NalO3 in FIG. 1B. Statistical analysis using one-way analysis of variance (ANOVA) test and Bonferroni test.

4-hydroxynonenal (4-HNE) = experiment: Assessment of oxidative stress at the retinal level (4-HNE immunofluorescence) in the NalO3-induced mouse model of macular degeneration; type: in vivo, C57BL/6J male mice; conditions: for protection of the retina from the NalO3-induced increase of 4-HNE (in words): NalO3 mouse model, eye drops; for reduction of the retinal levels of 4-HNE (immunofluorescence): eye drops 5 μl of 10 mM solution, 60 min before NalO3 (20 mg/kg, retro-orbital vein) then 3 times a day, retina collected day 4, mean±SEM, P<0.01 vs. V2/NalO3
Description: as §1, §2, §3, §4, §5, §6
The level of oxidative stress was also assessed throughout the thickness of the retina by measuring the immunofluorescence intensity for the reactive carbonyl species, 4-hydroxynonenal (4-HNE), a final indicator of oxidative stress.
Levels of 4-HNE were quantified using a primary antibody (#ab48506, monoclonal mouse [HNEJ-2], 1:40, Abcam, Cambridge, UK) to which a second fluorophore-labelled antibody (Alexa Fluor 594, #A A32742, Thermo Fisher Scientific) binds in the 6 groups of mice treated as described above.
Cell nuclei were visualized using the DAPI organic dye (#ab228549, Abcam, Cambridge, UK).
The data relating to the fluorescence intensity value are presented for each treatment as mean±SEM. *p<0.05 vs V1/V2; § p<0.05 vs NalO3 in FIG. 2B. Statistical analysis using one-way analysis of variance (ANOVA) test and Bonferroni test.

Compound	protection of the retina from NalO3-induced damage of the cells of the RPE layer (in words) [1]	reduction of the NalO3-induced damage on the RPE layer compared to V2 (RPE65 staining intensity) [1] [%]	protection of the retina from the NalO3-induced increase of 4-HNE (in words) (4-hydroxynonenal (4-HNE))	reduction of the retinal levels of 4-HNE (immunofluorescence) (4-hydroxynonenal (4-HNE)) [%]
C[C@H]1[C@H](F)C[C@@H](C(=O)NCc2cc(-c3cnc(C(F)(F)F)nc3)ncc2C(F)(F)F)N1S(=O)(=O)c1ccc(F)cc1 [compound of formula (IV)]	particularly effective in protecting the retina	84.5±33	protected the retina	64.16±17.51
Cc1cc2[nH]ncc2cc1-c1ccccc1C(F)(F)F [compound of formula (III)]	particularly effective in protecting the retina	96.8±20.0	protected the retina	62.10±7.55
COCCCOc1cccc([C@H]2NC(=S)NC3=C2C(=O)c2ccccc23)c1 [compound of formula (II)]	particularly effective in protecting the retina	60.0±12.8	protected the retina	50.32±6.30
